Here are results for three compounds from patent US8080552B2, “Pyrimidyl derivatives as protein kinase inhibitors” (Hoffmann-LA Roche Inc., priority 2006, dated 2011).

The test system of one assay is HCT 116 cells. Description: CellTiter-Glo assay in HCT 116 cells. The format is cell-based. To be noted: 120 h; HCT 116 human colon carcinoma cells, 5 days incubation, cell viability (ATP luminescence). The text has this: CellTiter-Glo™ Assay in HCT 116 Cells:
The CellTiter-Glo™ Luminescent Cell Viability Assay (Promega) is a homogeneous method of determining the number of viable cells in culture based on quantitation of the ATP present, which signals the presence of metabolically active cells.
HCT 116 cells (human colon carcinoma, ATCC-No. CCl-247) were cultivated in RPMI 1640 medium with GlutaMAX™ I (Invitrogen, Cat-No. 61870-010), 5% Fetal Calf Serum (FCS, Sigma Cat-No. F4135 (FBS)); 100 Units/ml penicillin/100 μg/ml streptomycin (=Pen/Strep from Invitrogen Cat. No. 15140). For the assay the cells were seeded in 384 well plates, 1000 cells per well, in the same medium. The next day the test compounds were added in various concentrations ranging from 30 μM to 0.0015 μM (10 concentrations, 1:3 diluted). After 5 days the CellTiter-Glo™ assay was done according to the instructions of the manufacturer (CellTiter-Glo™ Luminescent Cell Viability Assay, from Promega). In brief: the cell-plate was equilibrated to room temperature for approximately 30 minutes and than the CellTiter-Glo™ reagent was added. The contents were carefully mixed for 15 minutes to induce cell lysis. After 45 minutes the luminescent signal was measured in Victor 2, (scanning multiwell spectrophotometer, Wallac).
• Medium: RPMI 1640 with GlutaMAX™ I (Invitrogen, Cat-Nr. 61870), 5% FCS (Sigma Cat.-No. F4135), Pen/Strep (Invitrogen, Cat No. 15140). • HCT116 (ATCC-No. CCl-247): 1000 cells in 60 μl per well of 384 well plate (Greiner 781098, μClear-plate white) • After seeding incubate plates 24 h at 37° C., 5% CO2 2nd. Day: Induction (Treatment with Compounds, 10 Concentrations):
In order to achieve a final concentration of 30 μM as highest concentration 3.5 μl of 10 mM compound stock solution were added directly to 163 μl media. Then step e) of the dilution procedure described below, was followed.

For the next assay, the system named is VEGF-induced HUVEC cells. As to the kind of experiment: CellTiter-Glo assay in VEGF-induced HUVEC cells. Conditions: Homo sapiens; Table 2; VEGF-induced (20 ng/ml) HUVEC cells, 72 hours, cell viability (ATP luminescence); read-out: IC50 HCT 116. The format is cell-based. As for the experimental part:
CellTiter-Glo™ Assay in VEGF-Induced HUVEC Cells:
HUVEC-c (Human Umbilical Vein Endothelial Cells, from Promocell Cat-No. C-12200) cells were trypsinized, spinned down and plated in 384-well plates at 1500 cells per well in 60 μl endothelial basal medium (EBM-2 from Promocell, Cat-No. C-22211) with 0.5% Fetal Calf Serum (FCS, Sigma Cat-No. F4135 (FBS)). Cells were incubated overnight at 37° C., and the next day, test compounds (stock solution 140 μmol/l in medium with 4.2% dimethylsulfoxide (DMSO)) were added in 5 μl medium over a final concentration range of 10 μmol/l to 0.5 nmol/l and 0.3% DMSO. Compounds were tested in triplicates. After 2 hrs 5 μl VEGF (VEGF 165, R&D Systems, Cat-No. 293-VE-010, stock solution 280 ng/ml in medium) was added to a final concentration of 20 ng/ml. Cells were incubated for 72 hours at 37° C. in medium. Cell number was quantitated using CellTiter-Glo™ Luminescent Cell Viability Assay (from Promega) according to the instructions of the supplier. This assay measures the number of viable cells per well by measurement of luminescent signal based on amount of cellular ATP. IC50 are determined using a non-linear curve fit (XLfit software (ID Business Solution Ltd., Guilford, Surrey, UK)) (see also CellTiter-Glo™ assay in HCT 116 cells above).
Background: Cellular ATP, detected with luciferase, serves as a proxy for viable cell number.

With `CC(C)(C#N)c1cccc(NC(=O)Nc2ccc(Oc3ccnc(NCCCO)n3)cc2)c1` [Example 25, 1-[3-(Cyano-dimethyl-methyl)-phenyl]-3-{4-[2-(3-hydroxy-propylamino)-pyrimidin-4-yloxy]-phenyl}-urea], the IC50 with HCT 116 cells lay in the range of 0.3 to 10 µM; with VEGF-induced HUVEC cells it was 5 to 750 nM.

`O=C(Nc1ccc(Cl)cc1)Nc1ccc(Oc2ccnc(NCCCO)n2)cc1` [Example 6, 1-(4-Chloro-phenyl)-3-{4-[2-(3-hydroxy-propylamino)-pyrimidin-4-yloxy]-phenyl}-urea]: the IC50 is 0.3 to 10 µM in the assay on HCT 116 cells and 257 nM in the assay on VEGF-induced HUVEC cells.

On to `CC(O)CCNc1nccc(Oc2ccc(NC(=O)Nc3ccc(Cl)c(C(F)(F)F)c3)cc2)n1` (stereo not drawn) [Example 12, 1-(4-Chloro-3-trifluoromethylphenyl)-3-{4-[2-(3-hydroxy-butylamino)-pyrimidin-4-yloxy]-phenyl}-urea], for which the IC50 with HCT 116 cells was 0.3 to 10 µM; in the assay with VEGF-induced HUVEC cells, 5 to 750 nM.

As a reminder, the IC50 is the concentration that gives 50% inhibition.
